Test results as given in patent US6485746B1, “Controlled-release sedative-hypnotic compositions and methods related thereto” (Neurocrine Biosciences, Inc., priority 2000, dated 2002).
Values after ≈ are worked out from the molar mass of the structure shown.

Experiments:
[1] = Plasma pharmacokinetics of NBI-34060 (half-life, volume of distribution); assay type: in vivo, human
Source text: The mean plasma half-life of a sedative-hypnotic compound may be determined using well known techniques. Terminal half-life may be determined using standard pharmacokinetic calculations, such as those presented by Rolland and Tozer (Clinical Pharmacokinetics Concepts and Applications, 3rd. Ed., Chap. 3, 1995). in addition, software is commercially available which performs this calculation, such as the product sold under the tradename “WinNinlin™”(Prof. Ver. 1.5). […] This is estimated by linear regression analysis of the time vs. log concentration of the test compound.
In this experiment, commercially available plasma profiling software (GastroPlus™) (Simulations Plus Inc., CA.) was used to simulate the effects of varying controlled release profiles and pharmacokinetic parameters based on in vivo plasma concentrations of NBI-34060 as measured in 12-healthy male human subjects. […] This assumed that the lower CL drug would distribute to the same tissues as the higher CL drug, so that all half-life changes were because of differences in metabolism and/or renal clearance rather than in volumes. Two oral plasma concentration-time files were created (NBI-Target-Hi.opd and NBI-Target-Lo.opd) with plasma concentration-time points serving as targets (shown as a square in FIGS. 2, 3, 4 and 5). The requirements for Tmax2 for the high target was set at 100% of Tmax1.

CC(=O)N(C)c1cccc(-c2ccnc3c(C(=O)c4cccs4)cnn23)c1 [NBI-34060, N-methyl-N-(3-{3-[2-thienylcarbonyl]-pyrazolo-[1,5-a]-pyrimidin-7-yl}-phenyl)acetamide]
resulting pH (Solubility in water; pH of the solution in water at approximately 20-30 μg/ml): approximately 8.0 | solubility (Solubility in water; water, pH 8, water): 20 to 30 µg/mL (≈ 53.1 to 79.7 µM) | half-life ([1]; male, human, plasma half-life): ~1.3 h | Vd ([1]; one-compartment pharmacokinetic model, based on in vivo plasma concentrations in 12 healthy male human subjects): 159 L
